Reference: patent US12077503B2, “Substituted cyclic amides and their use as herbicides” (FMC CORPORATION, priority 2015, dated 2024)

What was measured:
Assay type in all cases: in vivo
[1] = tested on: barnyardgrass (Echinochloa crus-galli); assay: Test B flooded paddy test; conditions: Flood, 250 g ai/ha; 0 to 100 scale where 0 is no effect and 100 is complete control; 13 to 15 d
Outline: (§1)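 Plants at 2-leaf stage flooded to 3 cm above soil, with compounds applied directly to paddy water and that depth maintained. Plants kept in greenhouse 13–15 d. Visual rating versus controls on a 0 (no effect) to 100 (complete control) scale.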

rice (Oryra sativa) = assay: Test B flooded paddy test; conditions: Flood, 250 g ai/ha; 0 to 100 scale where 0 is no effect and 100 is complete control; 13 to 15 d
Outline: as §1

[2] = tested on: ducksalad (Heteranthera limosa); assay: Test B flooded paddy test; conditions: Flood, 250 g ai/ha; 0 to 100 scale where 0 is no effect and 100 is complete control; 13 to 15 d
Outline: as §1

[3] = tested on: sedge, umbrella (small-flower umbrella sedge, Cyperus difformis); assay: Test B flooded paddy test; conditions: Flood, 250 g ai/ha; 0 to 100 scale where 0 is no effect and 100 is complete control; 13 to 15 d
Outline: as §1

[4] = tested on: barnyardgrass (Echinochloa crus-galli); assay: Test A postemergence
Outline: (§2)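 Seeded soil received test chemicals as a preemergence directed spray, and seedlings at one to two leaves, 2–10 cm tall, received them postemergence, in a non-phytotoxic, surfactant-containing solvent mixture. Pots were held in a greenhouse for approximately 10 d, then rated for injury from 0, no effect, to 100, complete control.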

corn (Zea mays) = assay: Test A postemergence
Outline: as §2

[5] = tested on: blackgrass (Alopecurus myosuroides); assay: Test A postemergence
Outline: as §2

[6] = tested on: ryegrass, Italian (Italian ryegrass, Lolium multiflorum); assay: Test A postemergence
Outline: as §2

[7] = tested on: wheat (Triticum aestivum); assay: Test A postemergence
Outline: as §2

[8] = tested on: ragweed (common ragweed, Ambrosia elatior); assay: Test A postemergence
Outline: as §2

[9] = tested on: Galium (catchweed bedstraw, Galium aparine); assay: Test A postemergence
Outline: as §2

Kochia (Kochia scoparia) [10] = assay: Test A postemergence
Outline: as §2

[11] = tested on: giant foxtail (Setaria faberii); assay: Test A postemergence
Outline: as §2

[12] = tested on: pigweed (Amaranthus retroflexus); assay: Test A postemergence
Outline: as §2

[13] = tested on: barnyardgrass (Echinochloa crus-galli); assay: Test A preemergence
Outline: as §2

[14] = tested on: ryegrass, Italian (Italian ryegrass, Lolium multiflorum); assay: Test A preemergence
Outline: as §2

[15] = tested on: ragweed (common ragweed, Ambrosia elatior); assay: Test A preemergence
Outline: as §2

Kochia (Kochia scoparia) [16] = assay: Test A preemergence
Outline: as §2

[17] = tested on: giant foxtail (Setaria faberii); assay: Test A preemergence
Outline: as §2

[18] = tested on: pigweed (Amaranthus retroflexus); assay: Test A preemergence
[19] = 125 g ai/ha, postemergence, visual rating after approx. 10 d, 0 to 100 scale (0 no effect, 100 complete control)
[20] = 500 g ai/ha, postemergence, visual injury, 0 to 100 scale (0 no effect, 100 complete control), approx. 10 d
[21] = 125 g ai/ha, postemergence, visual injury after approximately 10 d, 0 to 100 scale (0 no effect, 100 complete control)
[22] = 125 g ai/ha, Preemergence, visual injury after approximately 10 d, 0 to 100 scale where 0 is no effect and 100 is complete control
[23] = 500 g ai/ha, preemergence, 0 to 100 scale, 0 = no effect, 100 = complete control
[24] = 125 g ai/ha, preemergence, visual rating after approx. 10 d, 0 to 100 scale where 0 is no effect and 100 is complete control
[25] = Postemergence, 500 g ai/ha, 0 to 100 scale where 0 is no effect and 100 is complete control
[26] = 125 g ai/ha, postemergence, visual injury rating on 0 to 100 scale (0 no effect, 100 complete control), approx. 10 d
[27] = 500 g ai/ha, postemergence, 0 to 100 scale, 0 no effect, 100 complete control
[28] = 125 g ai/ha, preemergence, 0 to 100 scale (0 no effect, 100 complete control)
[29] = Preemergence, 500 g ai/ha, visual injury approx. 10 d
[30] = Postemergence, 125 g ai/ha, visual injury, 0 to 100 scale (0 no effect, 100 complete control), approx. 10 d
[31] = Preemergence, 500 g ai/ha, 0 is no effect, 100 is complete control

## O=C1NCC(c2cccc(Br)c2)C1C(=O)Nc1ccccc1F (racemic) [Compound 686]
[1]
  Plant response rating, Barnyardgrass: 35
Rice (Oryra sativa)
  Plant response rating, Rice: 0
[2]
  Plant response rating, Ducksalad: 90
[3]
  Plant response rating, Sedge, Umbrella: 0
[4]; [19]
  Plant response rating, Barnyardgrass: 90
[4]; [20]
  Plant response rating, Barnyardgrass: 90
Corn (Zea mays); [21]
  Plant response rating, Corn: 0
Corn (Zea mays); [20]
  Plant response rating, Corn: 50
[5]; [19]
  Plant response rating, Blackgrass: 20
[5]; [20]
  Plant response rating, Blackgrass: 40
[6]; [21]
  Plant response rating, Ryegrass, Italian: 20
[6]; [20]
  Plant response rating, Ryegrass, Italian: 40
[7]; [21]
  Plant response rating, Wheat: 0
[7]; [20]
  Plant response rating, Wheat: 30
[8]; [21]
  Plant response rating, Ragweed: 20
[8]; [20]
  Plant response rating, Ragweed: 20
[9]; [21]
  Plant response rating, Galium: 0
[9]; [20]
  Plant response rating, Galium: 20
Kochia (Kochia scoparia) [10]; [21]
  Plant response rating, Kochia: 0
Kochia (Kochia scoparia) [10]; [20]
  Plant response rating, Kochia: 30
[11]; [21]
  Plant response rating, Foxtail, Giant: 80
[11]; [20]
  Plant response rating, Foxtail, Giant: 90
[12]; [21]
  Plant response rating, Pigweed: 0
[12]; [20]
  Plant response rating, Pigweed: 20
[13]; [22]
  Plant response rating, Barnyardgrass: 90
[13]; [23]
  Plant response rating, Barnyardgrass: 90
[14]; [24]
  Plant response rating, Ryegrass, Italian: 0
[14]; [23]
  Plant response rating, Ryegrass, Italian: 20
[15]; [24]
  Plant response rating, Ragweed: 0
[15]; [23]
  Plant response rating, Ragweed: 0
Kochia (Kochia scoparia) [16]; [22]
  Plant response rating, Kochia: 0
Kochia (Kochia scoparia) [16]; [23]
  Plant response rating, Kochia: 40
[17]; [22]
  Plant response rating, Foxtail, Giant: 90
[17]; [23]
  Plant response rating, Foxtail, Giant: 90
[18]; [24]
  Plant response rating, Pigweed: 0
[18]; [23]
  Plant response rating, Pigweed: 20

## Cc1cc(C2CNC(=O)C2C(=O)Nc2ccccc2F)cs1 (stereo not drawn) [Compound 630]
[1]
  Plant response rating, Barnyardgrass: 20
Rice (Oryra sativa)
  Plant response rating, Rice: 0
[2]
  Plant response rating, Ducksalad: 95
[3]
  Plant response rating, Sedge, Umbrella: 0
[4]; [19]
  Plant response rating, Barnyardgrass: 80
[4]; [25]
  Plant response rating, Barnyardgrass: 90
Corn (Zea mays); [19]
  Plant response rating, Corn: 0
Corn (Zea mays); [25]
  Plant response rating, Corn: 20
[5]; [19]
  Plant response rating, Blackgrass: 0
[5]; [25]
  Plant response rating, Blackgrass: 20
[6]; [19]
  Plant response rating, Ryegrass, Italian: 0
[6]; [20]
  Plant response rating, Ryegrass, Italian: 0
[7]; [19]
  Plant response rating, Wheat: 0
[7]; [20]
  Plant response rating, Wheat: 20
[8]; [19]
  Plant response rating, Ragweed: 0
[8]; [20]
  Plant response rating, Ragweed: 0
[9]; [19]
  Plant response rating, Galium: 0
[9]; [20]
  Plant response rating, Galium: 40
Kochia (Kochia scoparia) [10]; [19]
  Plant response rating, Kochia: 0
Kochia (Kochia scoparia) [10]; [20]
  Plant response rating, Kochia: 0
[11]; [19]
  Plant response rating, Foxtail, Giant: 30
[11]; [20]
  Plant response rating, Foxtail, Giant: 30
[12]; [19]
  Plant response rating, Pigweed: 0
[12]; [20]
  Plant response rating, Pigweed: 0
[13]; [22]
  Plant response rating, Barnyardgrass: 90
[13]; [23]
  Plant response rating, Barnyardgrass: 90
[14]; [22]
  Plant response rating, Ryegrass, Italian: 0
[14]; [23]
  Plant response rating, Ryegrass, Italian: 20
[15]; [22]
  Plant response rating, Ragweed: 0
[15]; [23]
  Plant response rating, Ragweed: 30
Kochia (Kochia scoparia) [16]; [22]
  Plant response rating, Kochia: 0
Kochia (Kochia scoparia) [16]; [23]
  Plant response rating, Kochia: 50
[17]; [22]
  Plant response rating, Foxtail, Giant: 80
[17]; [23]
  Plant response rating, Foxtail, Giant: 90
[18]; [22]
  Plant response rating, Pigweed: 0
[18]; [23]
  Plant response rating, Pigweed: 0

## CN1CC(c2ccc(F)cc2)C(C(=O)Nc2cccc(F)c2F)C1=O (stereo not drawn) [Compound 438]
[1]
  Plant response rating, Barnyardgrass: 85
Rice (Oryra sativa)
  Plant response rating, Rice: 20
[2]
  Plant response rating, Ducksalad: 100
[3]
  Plant response rating, Sedge, Umbrella: 0
[4]; [26]
  Barnyardgrass plant response rating: 90
[4]; [27]
  Plant response rating, Barnyardgrass: 90
Corn (Zea mays); [26]
  Corn plant response rating: 0
Corn (Zea mays); [27]
  Plant response rating, Corn: 50
[5]; [26]
  Blackgrass plant response rating: 40
[5]; [27]
  Plant response rating, Blackgrass: 70
[6]; [26]
  Ryegrass, Italian plant response rating: 40
[6]; [27]
  Plant response rating, Ryegrass, Italian: 60
[7]; [26]
  Wheat plant response rating: 30
[7]; [27]
  Plant response rating, Wheat: 70
[8]; [26]
  Ragweed plant response rating: 0
[8]; [27]
  Plant response rating, Ragweed: 30
[9]; [26]
  Galium plant response rating: 40
[9]; [27]
  Plant response rating, Galium: 50
Kochia (Kochia scoparia) [10]; [26]
  Kochia plant response rating: 70
Kochia (Kochia scoparia) [10]; [27]
  Plant response rating, Kochia: 70
[11]; [26]
  Foxtail, Giant plant response rating: 90
[11]; [27]
  Plant response rating, Foxtail, Giant: 90
[12]; [26]
  Pigweed plant response rating: 0
[12]; [27]
  Plant response rating, Pigweed: 60
[13]; [28]
  Plant response rating, Barnyardgrass: 90
[13]; [29]
  Barnyardgrass plant response rating (0 to 100 scale, 0 is no effect, 100 is complete control): 100
[14]; [28]
  Plant response rating, Ryegrass, Italian: 50
[14]; [29]
  Ryegrass, Italian plant response rating (0 to 100 scale, 0 is no effect, 100 is complete control): 70
[15]; [28]
  Plant response rating, Ragweed: 60
[15]; [29]
  Ragweed plant response rating (0 to 100 scale, 0 is no effect, 100 is complete control): 90
Kochia (Kochia scoparia) [16]; [28]
  Plant response rating, Kochia: 70
Kochia (Kochia scoparia) [16]; [29]
  Kochia plant response rating (0 to 100 scale, 0 is no effect, 100 is complete control): 80
[17]; [28]
  Plant response rating, Foxtail, Giant: 100
[17]; [29]
  Foxtail, Giant plant response rating (0 to 100 scale, 0 is no effect, 100 is complete control): 100
[18]; [28]
  Plant response rating, Pigweed: 80
[18]; [29]
  Pigweed plant response rating (0 to 100 scale, 0 is no effect, 100 is complete control): 90

## Cc1cccc(C2CNC(=O)C2C(=O)Nc2ccccc2C(F)(F)F)c1 (racemic) [Compound 374]
[1]
  Plant response rating, Barnyardgrass: 60
Rice (Oryra sativa)
  Plant response rating, Rice: 30
[2]
  Plant response rating, Ducksalad: 95
[3]
  Plant response rating, Sedge, Umbrella: 0
[4]; [27]
  Plant response rating, Barnyardgrass: 90
[4]; [30]
  Plant response rating, Barnyardgrass: 80
Corn (Zea mays); [27]
  Plant response rating, Corn: 20
Corn (Zea mays); [30]
  Plant response rating, Corn: 0
[5]; [27]
  Plant response rating, Blackgrass: 50
[5]; [30]
  Plant response rating, Blackgrass: 0
[6]; [27]
  Plant response rating, Ryegrass, Italian: 0
[6]; [30]
  Plant response rating, Ryegrass, Italian: 0
[7]; [27]
  Plant response rating, Wheat: 40
[7]; [30]
  Plant response rating, Wheat: 0
[8]; [27]
  Plant response rating, Ragweed: 0
[8]; [30]
  Plant response rating, Ragweed: 0
[9]; [27]
  Plant response rating, Galium: 40
[9]; [30]
  Plant response rating, Galium: 0
Kochia (Kochia scoparia) [10]; [27]
  Plant response rating, Kochia: 0
Kochia (Kochia scoparia) [10]; [30]
  Plant response rating, Kochia: 0
[11]; [27]
  Plant response rating, Foxtail, Giant: 50
[11]; [30]
  Plant response rating, Foxtail, Giant: 20
[12]; [27]
  Plant response rating, Pigweed: 0
[12]; [30]
  Plant response rating, Pigweed: 0
[13]; [28]
  Plant response rating, Barnyardgrass: 90
[13]; [31]
  Barnyardgrass plant response rating (0 to 100 scale): 90
[14]; [28]
  Plant response rating, Ryegrass, Italian: 0
[14]; [31]
  Ryegrass, Italian plant response rating (0 to 100 scale): 30
[15]; [28]
  Plant response rating, Ragweed: 0
[15]; [31]
  Ragweed plant response rating (0 to 100 scale): 0
Kochia (Kochia scoparia) [16]; [28]
  Plant response rating, Kochia: 0
Kochia (Kochia scoparia) [16]; [31]
  Kochia plant response rating (0 to 100 scale): 0
[17]; [28]
  Plant response rating, Foxtail, Giant: 90
[17]; [31]
  Foxtail, Giant plant response rating (0 to 100 scale): 90
[18]; [28]
  Plant response rating, Pigweed: 0
[18]; [31]
  Pigweed plant response rating (0 to 100 scale): 0
